Test results from ChEMBL document CHEMBL1145869, “Enantiomerically pure tetrahydroquinoline derivatives as in vivo potent antagonists of the glycine binding site associated to the NMDA receptor” (Bioorg Med Chem Lett, 2003).

Assays:
Glutamate NMDA receptor = assay: In vitro ability to inhibit the binding of [3H]glycine to glycine binding site of N-methyl-D-aspartate glutamate receptor in rat synaptic membranes; type: cell membranes, Membrane
Rattus norvegicus [1] = assay: In vivo neuroprotective activity as reduction of size of gross brain damage in the MCAo model of rats 6 hr after occlusion(post-ischemia) by iv administration at a dose of 1 mg/kg; type: functional
Rattus norvegicus [2] = assay: In vivo neuroprotective activity in the MCAo model of rats 6 hr after occlusion(post-ischemia) by iv administration at a dose of 1 mg/kg; type: functional
Rattus norvegicus [3] = assay: In vivo neuroprotective activity in the MCAo model of rats 6 hr after occlusion(post-ischemia) by iv administration at a dose of 0.3 mg/kg; type: functional
Mus musculus = assay: In vivo neuroprotective activity in the NMDA-induced convulsions in mice after iv administration; type: functional
Rattus norvegicus [4] = assay: In vivo neuroprotective activity as reduction of size of gross brain damage in the MCAo model of rats 6 hr after occlusion(post-ischemia) by iv administration at a dose of 0.3 mg/kg; type: functional
Rattus norvegicus [5] = species on record: Rattus norvegicus; assay: Area under curve in rat plasma; type: ADME, organism-based; settings: in vivo
Rattus norvegicus [6] = assay: In vivo neuroprotective activity as reduction of size of gross brain damage in the MCAo model of rats 5 min prior to occlusion(pre-ischemia) by iv administration at a dose of 0.01 mg/kg; type: functional
Rattus norvegicus [7] = assay: In vivo neuroprotective activity in the MCAo model of rats 5 min prior to occlusion(pre-ischemia) by iv administration at a dose of 0.1 mg/kg; type: functional
Rattus norvegicus [8] = assay: In vivo neuroprotective activity as reduction of size of gross brain damage in the MCAo model of rats 5 min prior to occlusion(pre-ischemia) by iv administration at a dose of 0.1 mg/kg; type: functional
Rattus norvegicus [9] = assay: In vivo neuroprotective activity as reduction of size of gross brain damage in the MCAo model of rats 5 min prior to occlusion(pre-ischemia) by iv administration at a dose of 1 mg/kg; type: functional
Rattus norvegicus [10] = assay: In vivo neuroprotective activity in the MCAo model of rats 5 min prior to occlusion(pre-ischemia) by iv administration at a dose of 10 mg/kg; type: functional
Rattus norvegicus [11] = assay: In vivo neuroprotective activity in the MCAo model of rats 5 min prior to occlusion(pre-ischemia) by iv administration at a dose of 0.01 mg/kg; type: functional
Rattus norvegicus [12] = assay: In vivo neuroprotective activity in the MCAo model of rats 5 min prior to occlusion(pre-ischemia) by iv administration at a dose of 1 mg/kg; type: functional
Rattus norvegicus [13] = assay: In vivo neuroprotective activity as reduction of size of gross brain damage in the MCAo model of rats 5 min prior to occlusion(pre-ischemia) by iv administration at a dose of 10 mg/kg; type: functional

NC(=O)/C=C/c1ccc(NC(=O)/C=C2\CC(C(=O)O)Nc3cc(Cl)cc(Cl)c32)cc1 (stereo not drawn)
Log Ki (Glutamate NMDA receptor): -8.15

Nc1ccc(NC(=O)/C=C2\CC(C(=O)O)Nc3cc(Cl)cc(Cl)c32)cc1 (stereo not drawn)
Log Ki (Glutamate NMDA receptor): -7.76

O=C(/C=C/c1c(C(=O)O)[nH]c2cc(Cl)cc(Cl)c12)Nc1ccccc1 [GAVESTINEL]
Log Ki (Glutamate NMDA receptor): -8.52

NC(=O)Cc1ccc(NC(=O)/C=C2\CC(C(=O)O)Nc3cc(Cl)cc(Cl)c32)cc1 (stereo not drawn)
Log Ki (Glutamate NMDA receptor): -8.18

COCC(=O)Nc1ccc(NC(=O)/C=C2\CC(C(=O)O)Nc3cc(Cl)cc(Cl)c32)cc1 (stereo not drawn)
Log Ki (Glutamate NMDA receptor): -8.18

CC(=O)NCc1ccc(NC(=O)/C=C2\CC(C(=O)O)Nc3cc(Cl)cc(Cl)c32)cc1 (stereo not drawn)
Log Ki (Glutamate NMDA receptor): -8.32

NS(=O)(=O)Nc1ccc(NC(=O)/C=C2\CC(C(=O)O)Nc3cc(Cl)cc(Cl)c32)cc1 (stereo not drawn)
Log Ki (Glutamate NMDA receptor): -8.17

CS(=O)(=O)Nc1ccc(NC(=O)/C=C2\CC(C(=O)O)Nc3cc(Cl)cc(Cl)c32)cc1 (stereo not drawn)
Log Ki (Glutamate NMDA receptor): -8.18

CC(C)C(=O)NCc1ccc(NC(=O)/C=C2\CC(C(=O)O)Nc3cc(Cl)cc(Cl)c32)cc1 (stereo not drawn)
Log Ki (Glutamate NMDA receptor): -7.78

CC(=O)Nc1ccc(NC(=O)/C=C2\CC(C(=O)O)Nc3cc(Cl)cc(Cl)c32)cc1 (single isomer, unassigned; (+))
Reduction (Rattus norvegicus [1]): 41.2%
Infarct volume (Rattus norvegicus [2]): 44.4 mm**3
Log Ki (Glutamate NMDA receptor): -8.79
Infarct volume (Rattus norvegicus [3]): 55.6 mm**3
ED50 (Mus musculus): 0.31 mg/kg
Reduction (Rattus norvegicus [4]): 26.3%
AUC (Rattus norvegicus [5]): 3.44 µg·h/mL

N#CCc1ccc(NC(=O)/C=C2\CC(C(=O)O)Nc3cc(Cl)cc(Cl)c32)cc1 (stereo not drawn)
Log Ki (Glutamate NMDA receptor): -8.15

O=C(O)Cc1ccc(NC(=O)/C=C2\CC(C(=O)O)Nc3cc(Cl)cc(Cl)c32)cc1 (stereo not drawn)
Log Ki (Glutamate NMDA receptor): -7.72

N#C/C=C/c1ccc(NC(=O)/C=C2\CC(C(=O)O)Nc3cc(Cl)cc(Cl)c32)cc1 (stereo not drawn)
Log Ki (Glutamate NMDA receptor): -7.73

NC(=O)NCc1ccc(NC(=O)/C=C2\CC(C(=O)O)Nc3cc(Cl)cc(Cl)c32)cc1 (stereo not drawn)
Log Ki (Glutamate NMDA receptor): -8.38

CC(=O)Nc1ccc(NC(=O)/C=C2\CC(C(=O)O)Nc3cc(Cl)cc(Cl)c32)cc1 (single isomer, unassigned; (-))
Reduction (Rattus norvegicus [1]): 43.2%
Infarct volume (Rattus norvegicus [2]): 42.9 mm**3
Log Ki (Glutamate NMDA receptor): -7.3
Infarct volume (Rattus norvegicus [3]): 58.7 mm**3
ED50 (Mus musculus): 1.52 mg/kg
Reduction (Rattus norvegicus [4]): 22.2%
AUC (Rattus norvegicus [5]): 19.8 µg·h/mL

O=C(/C=C1\CC(C(=O)O)Nc2cc(Cl)cc(Cl)c21)Nc1ccccc1 (stereo not drawn)
Log Ki (Glutamate NMDA receptor): -8.18

CC(=O)Nc1ccc(NC(=O)/C=C2\CC(C(=O)O)Nc3cc(Cl)cc(Cl)c32)cc1 (stereo in doubt; 3c)
Reduction (Rattus norvegicus [6]): 12.7%
Infarct volume (Rattus norvegicus [7]): 47.8 mm3
Reduction (Rattus norvegicus [1]): 59.4%
Reduction (Rattus norvegicus [8]): 35.1%
Infarct volume (Rattus norvegicus [2]): 29.9 mm**3
Log Ki (Glutamate NMDA receptor): -8.52
Reduction (Rattus norvegicus [9]): 43.3%
Infarct volume (Rattus norvegicus [3]): 36.6 mm**3
Infarct volume (Rattus norvegicus [10]): 39.7 mm3
ED50 (Mus musculus): 0.2 mg/kg
Reduction (Rattus norvegicus [4]): 50.3%
AUC (Rattus norvegicus [5]): 11.5 µg·h/mL
Infarct volume (Rattus norvegicus [11]): 64.3 mm3
Infarct volume (Rattus norvegicus [12]): 41.8 mm3
Reduction (Rattus norvegicus [13]): 46.1%
